In patent US20260042772A1, “FURO PYRIMIDINE DERIVATES” (Merck Patent GmbH, priority 2022, published 2026):

Tested on: chloroquine sensitive (CQS) strain (NF54) of P. falciparum
Assay: In vitro antiplasmodial activity, Assay A (parasite lactate dehydrogenase assay)
Format: cell-based
Details: not given
Description: Test samples were screened for in vitro antiplasmodial activity against a chloroquine sensitive (CQS) strain (NF54) of the malaria parasite P. falciparum. Continuous in vitro cultures of asexual erythrocyte stages of P. falciparum were maintained using a modified version of the method of Trager and Jensen (1976).1 Quantitative assessment of antiplasmodial activity in vitro was determined via the parasite lactate dehydrogenase assay using a modified method described by Makler (1993). The test samples were tested in triplicate on two separate occasions. Further dilutions were prepared in complete medium on the day of the experiment. Samples were tested as a suspension if not completely dissolved. Chloroquine and artesunate were used as the reference drugs. A full dose-response were performed starting at a concentration of 3000 nM, which is then serially diluted 2-fold in complete medium to give 10 concentrations; with the lowest concentration being approximately 6 nM. The same dilution techniques were used for all samples. References were tested at a starting concentration of 1000 ng/mL. The highest concentration of solvent to which the parasites were exposed has no measurable effect on the parasite viability (data not shown).

SMILES	IC50
CC(C)(O)c1cccc(-c2ncnc3cc(-c4ccc(S(C)(=N)=O)cc4)oc23)c1F (stereo not drawn) [Compound P28, (4-(4-(2-fluoro-3-(2-hydroxypropan-2-yl)phenyl)furo[3,2-d]pyrimidin-6-yl)phenyl)(imino)(methyl)-λ6-sulfanone]	< 15 nM

Same assay, conditions: Plasmodium falciparum

SMILES	IC50
Cn1cc(-c2cc3ncnc(-c4cccc(S(=O)(=O)C5CC5)c4)c3o2)ccc1=O [Compound D22, 5-(4-(3-(cyclopropylsulfonyl)phenyl)furo[3,2-d]pyrimidin-6-yl)-1-methylpyridin-2(1H)-one]	> 50 nM
CC(C)(C)OC(=O)c1ccc(-c2cc3ncnc(-c4ccnc(C(C)(C)O)c4)c3o2)cc1 [Compound D162, tert-butyl 4-(4-(2-(2-hydroxypropan-2-yl)pyridin-4-yl)furo[3,2-d]pyrimidin-6-yl)benzoate]	< 15 nM
COC(=O)c1cccc(-c2cc3ncnc(-c4ccnc(C(C)(C)O)c4)c3o2)c1 [Compound D163, methyl 3-(4-(2-(2-hydroxypropan-2-yl)pyridin-4-yl)furo[3,2-d]pyrimidin-6-yl)benzoate]	< 15 nM
CC(C)(O)c1cc(-c2ncnc3cc(-c4cccc(C(=O)O)c4)oc23)ccn1 [Compound D164, 3-(4-(2-(2-hydroxypropan-2-yl)pyridin-4-yl)furo[3,2-d]pyrimidin-6-yl)benzoic acid]	< 15 nM
CC(C)(O)c1cc(F)cc(-c2ncnc3cc(-c4ccc(C(=O)N5CCOCC5)cc4)oc23)c1 [Compound D165, (4-(4-(3-fluoro-5-(2-hydroxypropan-2-yl)phenyl)furo[3,2-d]pyrimidin-6-yl)phenyl)(morpholino) methanone]	< 15 nM
CC1COCC(C)N1C(=O)c1ccc(-c2cc3ncnc(-c4ccnc(C(C)(C)O)c4)c3o2)cc1 (stereo not drawn) [Compound D171, (3,5-dimethylmorpholino)(4-(4-(2-(2-hydroxypropan-2-yl)pyridin-4-yl)furo[3,2-d]pyrimidin-6-yl)phenyl)methanone]	> 50 nM
CC(C)(O)c1cc(F)cc(-c2ncnc3cc(-c4ccc(C(=O)N5C[C@H]6C[C@@H]5CO6)cc4)oc23)c1 [Compound D173, ((1R,4R)-2-oxa-5-azabicyclo[2.2.1]heptan-5-yl)(4-(4-(3-fluoro-5-(2-hydroxypropan-2-yl)phenyl)furo[3,2-d]pyrimidin-6-yl)phenyl)methanone]	< 15 nM
CC(C)(O)c1cc(F)cc(-c2ncnc3cc(-c4ccc(C(=O)N5C[C@@H]6C[C@H]5CO6)cc4)oc23)c1 [Compound D175, ((1S,4S)-2-oxa-5-azabicyclo[2.2.1]heptan-5-yl)(4-(4-(3-fluoro-5-(2-hydroxypropan-2-yl)phenyl)furo[3,2-d]pyrimidin-6-yl)phenyl)methanone]	< 15 nM
CC(C)(O)c1cccc(-c2ncnc3cc(-c4ccc(C(=O)N5CCOCC5)cc4)oc23)c1 [Compound P13, (4-(4-(3-(2-hydroxypropan-2-yl)phenyl)furo[3,2-d]pyrimidin-6-yl)phenyl)(morpholino) methanone]	> 50 nM

Tested on: CQC sensitive strain (NF54) of P. falciparum
Assay: In vitro antiplasmodial activity, Assay B (as described by Vennerstrom et al. 2004)
Format: cell-based
Details: Plasmodium falciparum; NF54, Vennerstrom et al. method
Description: Compounds were screened against CQC sensitive strain (NF54) of P. falciparum in vitro as described by Vennerstrom et al. (2004). A full dose-response were performed starting at a concentration of 3000 nM, which is then serially diluted 2-fold in complete medium to give 10 concentrations; with the lowest concentration being approximately 6 nM. The same dilution techniques were used for all samples. References were tested at a starting concentration of 1000 ng/mL. The highest concentration of solvent to which the parasites were exposed has no measurable effect on the parasite viability (data not shown).

SMILES	IC50
CC(=O)c1ccc(-c2cc3ncnc(-c4cccc(S(=O)(=O)C5CC5)c4)c3o2)cn1 [Compound P2, 1-(5-(4-(3-(cyclopropylsulfonyl)phenyl)furo[3,2-d]pyrimidin-6-yl)pyridin-2-yl)ethan-1-one]	> 50 nM
CS(=O)(=O)c1ccc(-c2cc3ncnc(-c4cccc(C(=O)N5C[C@H]6C[C@@H]5CO6)c4)c3o2)cc1 [Compound P3, ((1R,4R)-2-oxa-5-azabicyclo[2.2.1]heptan-5-yl)(3-(6-(4-(methylsulfonyl)phenyl)furo [3,2-d]pyrimidin-4-yl)phenyl)methanone]	> 50 nM
CS(=O)(=O)c1ccc(-c2cc3ncnc(-c4cccc(C(=O)N5C[C@H]6C[C@@H]5CO6)c4F)c3o2)cc1 [Compound P4, ((1R,4R)-2-oxa-5-azabicyclo[2.2.1]heptan-5-yl)(2-fluoro-3-(6-(4-(methylsulfonyl)phenyl)furo [3,2-d]pyrimidin-4-yl)phenyl)methanone]	15 to 50 nM
CS(=O)(=O)c1ccc(-c2cc3ncnc(-c4cccc(C(=O)N5C[C@@H]6C[C@H]5CO6)c4F)c3o2)cc1 [Compound P5, ((1S,4S)-2-oxa-5-azabicyclo[2.2.1]heptan-5-yl)(2-fluoro-3-(6-(4-(methylsulfonyl)phenyl)furo [3,2-d]pyrimidin-4-yl)phenyl)methanone]	15 to 50 nM
CC(C)(O)Cc1cc(-c2ncnc3cc(-c4ccc(S(C)(=O)=O)cc4)oc23)ccn1 [Compound P6, 2-methyl-1-(4-(6-(4-(methylsulfonyl)phenyl)furo [3,2-d]pyrimidin-4-yl)pyridin-2-yl)propan-2-ol]	> 50 nM
CC(C)(O)c1cc(-c2ncnc3cc(-c4ccc(S(C)(=O)=O)cc4)oc23)ccn1 [Compound P7, 2-(4-(6-(4-(methylsulfonyl)phenyl)furo [3,2-d]pyrimidin-4-yl)pyridin-2-yl)propan-2-ol]	15 to 50 nM
CN(C)C(=O)c1ccc(-c2cc3ncnc(-c4ccnc(C(C)(C)O)c4)c3o2)cc1 [Compound P8, 4-(4-(2-(2-hydroxypropan-2-yl)pyridin-4-yl)furo[3,2-d]pyrimidin-6-yl)-N,N-dimethylbenzamide]	15 to 50 nM
CN(C)C(=O)c1ccc(-c2cc3ncnc(-c4cccc(C(C)(C)O)c4)c3o2)cc1 [Compound P9, 4-(4-(3-(2-hydroxypropan-2-yl)phenyl)furo[3,2-d]pyrimidin-6-yl)-N,N-dimethylbenzamide]	15 to 50 nM
CC(C)(O)c1cc(-c2ncnc3cc(-c4ccc(C(=O)O)cc4)oc23)ccn1 [Compound P10, 4-(4-(2-(2-hydroxypropan-2-yl)pyridin-4-yl)furo[3,2-d]pyrimidin-6-yl)benzoic acid]	15 to 50 nM
CC(C)(O)c1cc(-c2ncnc3cc(-c4ccc(C(=O)N5CCOCC5)cc4)oc23)ccn1 [Compound P11, (4-(4-(2-(2-hydroxypropan-2-yl)pyridin-4-yl)furo[3,2-d]pyrimidin-6-yl)phenyl)(morpholino) methanone]	< 15 nM
CC(C)(O)c1cc(-c2ncnc3cc(-c4ccc(C(=O)N5CC(F)(F)C5)cc4)oc23)ccn1 [Compound P12, (3,3-difluoroazetidin-1-yl)(4-(4-(2-(2-hydroxypropan-2-yl)pyridin-4-yl)furo[3,2-d]pyrimidin-6-yl)phenyl)methanone]	15 to 50 nM
CC(C)(O)c1cc(-c2ncnc3cc(-c4ccc(C(=O)N5CCOCC5)cc4)oc23)cc(F)n1 [Compound P14, (4-(4-(2-fluoro-6-(2-hydroxypropan-2-yl)pyridin-4-yl)furo[3,2-d]pyrimidin-6-yl)phenyl)(morpholino) methanone]	15 to 50 nM
C[C@@H]1CN(C(=O)c2ccc(-c3cc4ncnc(-c5ccnc(C(C)(C)O)c5)c4o3)cc2)C[C@@H](C)O1 [Compound P15, ((2R,6R)-2,6-dimethylmorpholino)(4-(4-(2-(2-hydroxypropan-2-yl)pyridin-4-yl)furo[3,2-d]pyrimidin-6-yl)phenyl)methanone]	< 15 nM
C[C@H]1CN(C(=O)c2ccc(-c3cc4ncnc(-c5ccnc(C(C)(C)O)c5)c4o3)cc2)C[C@H](C)O1 [Compound P16, ((2S,6S)-2,6-dimethylmorpholino)(4-(4-(2-(2-hydroxypropan-2-yl)pyridin-4-yl)furo[3,2-d]pyrimidin-6-yl)phenyl)methanone]	< 15 nM
CN1CCN(C(=O)c2ccc(-c3cc4ncnc(-c5ccnc(C(C)(C)O)c5)c4o3)cc2)CC1 [Compound P22, (4-(4-(2-(2-hydroxypropan-2-yl)pyridin-4-yl)furo[3,2-d]pyrimidin-6-yl)phenyl)(4-methylpiperazin-1-yl)methanone]	< 15 nM
CC(C)(O)c1cc(-c2ncnc3cc(-c4ccc(S(C)(=N)=O)cc4)oc23)ccn1 (stereo not drawn) [Compound P25, (4-(4-(2-(2-hydroxypropan-2-yl)pyridin-4-yl)furo[3,2-d]pyrimidin-6-yl)phenyl)(imino)(methyl)-λ6-sulfanone]	15 to 50 nM
CC(C)(O)c1cc(-c2ncnc3cc(-c4ccc([S@@](C)(=N)=O)cc4)oc23)ccn1 [Compound P26, (S)-(4-(4-(2-(2-hydroxypropan-2-yl)pyridin-4-yl)furo[3,2-d]pyrimidin-6-yl)phenyl)(imino)(methyl)-λ6-sulfanone]	15 to 50 nM
CC(C)(O)c1cc(-c2ncnc3cc(-c4ccc([S@](C)(=N)=O)cc4)oc23)ccn1 [Compound P27, (R)-(4-(4-(2-(2-hydroxypropan-2-yl)pyridin-4-yl)furo[3,2-d]pyrimidin-6-yl)phenyl)(imino)(methyl)-λ6-sulfanone]	15 to 50 nM
CC(C)(O)c1cccc(-c2ncnc3cc(-c4ccc([S@@](C)(=N)=O)cc4)oc23)c1F [Compound P29, (S)-(4-(4-(2-fluoro-3-(2-hydroxypropan-2-yl)phenyl)furo[3,2-d]pyrimidin-6-yl)phenyl)(imino)(methyl)-λ6-sulfanone]	< 15 nM
CC(C)(O)c1cccc(-c2ncnc3cc(-c4ccc([S@](C)(=N)=O)cc4)oc23)c1F [Compound P30, (R)-(4-(4-(2-fluoro-3-(2-hydroxypropan-2-yl)phenyl)furo[3,2-d]pyrimidin-6-yl)phenyl)(imino)(methyl)-λ6-sulfanone]	< 15 nM
